Laboratory results published in patent publication US20230340012A1, “NATURAL AND SYNTHETIC COMPOUNDS FOR TREATING CANCER AND OTHER DISEASES” (PACIFIC ARROW LIMITED, priority 2009, published 2023).

system: cancer cells; experiment: MTT cytotoxic assay of esterification products (Cytotoxicity activity); format: cell-based, human; settings: E4A esterified with Acetyl chloride (Acy = Acetyl), compounds isolated with HPLC
Text: The peaks, fractions and compounds are selected according to the activities of times studies and the changes of peaks. Selecting the HPLC fractions for isolation is according to the cytotoxic activity of the reaction product obtained at a specific time. The compounds having strong to weak activities are selected and isolated. Selecting the HPLC fractions for isolation may be according to the cytotoxic activity of times studies and the change of peaks. The anti-cancer activities are the MTT studies of bone (U2OS), lung (H460), bladder (HTB-9), ovary (ES2), colon (HCT116), pancreas (Capan), ovary(OVCAR3), prostate (DU145), skin (SK-Mel-5), mouth (KB), kidney (A498), breast (MCF-7), liver (HepG2), brain (T98G), leukemia (K562), cervix (HeLa).
Esterification of compound (A), (B), (C), (D1), (D2), (E), (F), (G), (H1), (H2), E4A, E4A2Y, (P1), P(2), terpene, isoprene, triterpenes, hydroxylated triterpenes, with acyl halide, wherein the halide comprise chloride, bromide, fluoride and iodide, wherein the acyl halide comprise acyl chloride, wherein acyl chloride comprise tigloyl chloride, angeloyl chloride, acetyl chloride, crotonoyl chloride, 3,3-Dimethylacryloyl chloride, senecioyl chloride, cinnamoyl chloride, pentenoyl chloride, hexanoyl chloride, benzoyl chloride, ethylbutyryl chloride, propionyl chloride, 2-propenoyl chloride, isobutyryl chloride, butyryl chloride, (2E)-2-pentenoyl chloride, 4-Pentenoyl chloride, 5-hexenoyl chloride, heptanoyl chloride, octanoyl chloride, nonanoyl chloride, decanoyl chloride, Lauroyl chloride, myristoyl chloride, oleoyl chloride. The compounds vary in composition when the time or temperature of the reaction is changed. The peaks, fractions and compounds are selected according to the activities of times studies and the changes of peaks. The compounds having strong to weak activities are selected and isolated. The anti-cancer activities (Cytotoxic Assay) are the MTT studies of bone (U2OS), lung (H460), bladder(HTB-9), ovary (ES2), colon (HCT116), pancreas (Capan), ovary(OVCAR3), prostate (DU145), skin (SK-Mel-5), mouth (KB), kidney (A498), breast (MCF-7), liver (HepG2), brain (T98G), leukemia (K562), cervix (HeLa). The active esterification products are purified with HPLC. The reaction product of mixtures and individual compounds are tested with MTT Cytotoxic Assay. Details of method are in Experiment 3 of the present application. A second esterification of compound can be selected from the above experiment results to produce new active compounds. A partial esterification compound is selected from the above experiments to perform a second or repeated with a third esterification with different acyl chloride in order to produce new active compounds with the experiments in the present application.
Method: 40 mg of triterpene core (fraction IV) was dissolved in 1 ml pyridine in a 50 ml tube. Reaction is started by adding 0.2 ml of acyl chloride (Tigloyl chloride, angeloyl chloride, Acetyl chloride, Crotonoyl chloride, 3,3-Dimethylacryloyl chloride(senecioyl chloride), Cinnamoyl chloride, Pentenoyl chloride, Hexanoyl chloride, benzoyl chloride or Ethylbutyryl chloride). The mixture is stirred for 5 sec, 1 min, 2 min, 5 min, 10 min, 30 min, 1 hr, 2 hr, 18 hr, 2 days or 3 days at 0° C., 25° C. or 75° C. temperature. At the end of reaction, 5 ml of 2N HCl or 1 M NaHCO3 is added to the reaction mixture. The solution is then extracted 3 times with 10 ml of ethyl acetate which is then evaporated under vacuum and at 45C and lyophilization. The reaction product is dissolved in 80% acetonitrile - 0.005% Trifluoroacetic acid or DMSO; and was separated with HPLC. Selecting the HPLC fractions for isolation is according to the cytotoxic activity of the reaction product obtained at a specific reaction time. The active esterification products are purified with HPLC. The reaction product of mixtures and individual compounds are tested with MTT cytotoxic assay. Structures are determined with NMR. […]

Row | SMILES | Cytotoxicity activity
1 | CC(=O)OCC1(C)C(O)CCC2(C)C1CCC1(C)C2CC=C2C3CC(C)(C)C(OC(C)=O)C(O)C3(COC(C)=O)C(O)CC21C (stereo not shown) [Compound H4] | moderate
2 | CC(=O)OC1C(OC(C)=O)C2(CO)C(O)CC3(C)C(=CCC4C5(C)CCC(OC(C)=O)C(C)(CO)C5CCC43C)C2CC1(C)C (stereo not shown) [Compound H23] | moderate
3 | CC(=O)OCC1(C)C(O)CCC2(C)C1CCC1(C)C2CC=C2C3CC(C)(C)C(OC(C)=O)C(OC(C)=O)C3(COC(C)=O)C(OC(C)=O)CC21C (stereo not shown) [Compound H16] | weak

same assay, conditions: E4A esterified with Cinnamoyl chloride (Cin = Cinnamoyl), compounds isolated with HPLC

Row | SMILES | Cytotoxicity activity
4 | CC1(C)CC2C3=CCC4C5(C)CCC(O)C(C)(COC(=O)C=Cc6ccccc6)C5CCC4(C)C3(C)CC(O)C2(COC(=O)C=Cc2ccccc2)C(O)C1O (stereo not shown) [Compound J3] | strong
5 | CC1(C)CC2C3=CCC4C5(C)CCC(OC(=O)C=Cc6ccccc6)C(C)(COC(=O)C=Cc6ccccc6)C5CCC4(C)C3(C)CC(O)C2(COC(=O)C=Cc2ccccc2)C(O)C1O (stereo not shown) [Compound J6] | moderate

same assay, conditions: E4A esterified with Crotonoyl chloride (Cro = Crotonoyl), compounds isolated with HPLC

Row | SMILES | Cytotoxicity activity
6 | CC=CC(=O)OCC1(C)C(OC(=O)C=CC)CCC2(C)C1CCC1(C)C2CC=C2C3CC(C)(C)C(OC(=O)C=CC)C(O)C3(COC(=O)C=CC)C(O)CC21C (stereo not shown) [Compound I11] | weak
7 | CC=CC(=O)OCC1(C)C(O)CCC2(C)C1CCC1(C)C2CC=C2C3CC(C)(C)C(O)C(O)C3(COC(=O)C=CC)C(O)CC21C (stereo not shown) [Compound I3] | strong
8 | CC=CC(=O)OCC1(C)C(O)CCC2(C)C1CCC1(C)C2CC=C2C3CC(C)(C)C(O)C(OC(=O)C=CC)C3(COC(=O)C=CC)C(O)CC21C (stereo not shown) [Compound I5] | moderate

same assay, conditions: MTT cytotoxic assay, isolated esterification products of E4A

Row | SMILES | Cytotoxicity activity
9 | CC=C(C)C(=O)OC1C(OC(=O)C(C)=CC)C2(CO)C(O)CC3(C)C(=CCC4C5(C)CCC(OC(=O)C(C)=CC)C(C)(CO)C5CCC43C)C2CC1(C)C (stereo not shown) [Compound A23] | moderate
10 | CCC(CC)C(=O)OCC12C(O)CC3(C)C(=CCC4C5(C)CCC(O)C(C)(CO)C5CCC43C)C1CC(C)(C)C(OC(=O)C(CC)CC)C2OC(=O)C(CC)CC (stereo not shown) [Compound E20] | moderate
11 | CCCCCC(=O)OCC1(C)C(O)CCC2(C)C1CCC1(C)C2CC=C2C3CC(C)(C)C(O)C(OC(=O)CCCCC)C3(CO)C(O)CC21C (stereo not shown) [Compound D30] | moderate
12 | CC=C(C)C(=O)OCC1(C)C(OC(=O)C(C)=CC)CCC2(C)C1CCC1(C)C2CC=C2C3CC(C)(C)C(O)C(OC(=O)C(C)=CC)C3(COC(=O)C(C)=CC)C(O)CC21C (stereo not shown) [Compound A9] | weak
13 | CC(C)=CC(=O)OCC12C(O)CC3(C)C(=CCC4C5(C)CCC(O)C(C)(CO)C5CCC43C)C1CC(C)(C)C(OC(=O)C=C(C)C)C2O (stereo not shown) [Compound B25] | moderate
14 | C=CCCC(=O)OCC1(C)C(OC(=O)CCC=C)CCC2(C)C1CCC1(C)C2CC=C2C3CC(C)(C)C(OC(=O)CCC=C)C(OC(=O)CCC=C)C3(COC(=O)CCC=C)C(O)CC21C (stereo not shown) [Compound C15] | weak
15 | CCC(CC)C(=O)OCC1(C)C(O)CCC2(C)C1CCC1(C)C2CC=C2C3CC(C)(C)C(O)C(OC(=O)C(CC)CC)C3(COC(=O)C(CC)CC)C(OC(=O)C(CC)CC)CC21C (stereo not shown) [Compound E12] | weak
16 | C=CCCC(=O)OCC1(C)C(OC(=O)CCC=C)CCC2(C)C1CCC1(C)C2CC=C2C3CC(C)(C)C(O)C(OC(=O)CCC=C)C3(COC(=O)CCC=C)C(O)CC21C (stereo not shown) [Compound C9] | weak
17 | CC=C(C)C(=O)OCC1(C)C(OC(=O)C(C)=CC)CCC2(C)C1CCC1(C)C2CC=C2C3CC(C)(C)C(OC(=O)C(C)=CC)C(O)C3(COC(=O)C(C)=CC)C(OC(=O)C(C)=CC)CC21C (stereo not shown) [Compound A17] | weak
18 | CC(C)=CC(=O)OC1C(OC(=O)C=C(C)C)C2(CO)C(O)CC3(C)C(=CCC4C5(C)CCC(OC(=O)C=C(C)C)C(C)(CO)C5CCC43C)C2CC1(C)C (stereo not shown) [Compound B23] | moderate
19 | CCC(CC)C(=O)OCC1(C)C(O)CCC2(C)C1CCC1(C)C2CC=C2C3CC(C)(C)C(O)C(O)C3(CO)C(O)CC21C (stereo not shown) [Compound E1] | moderate
20 | CCC(CC)C(=O)OCC1(C)C(O)CCC2(C)C1CCC1(C)C2CC=C2C3CC(C)(C)C(OC(=O)C(CC)CC)C(OC(=O)C(CC)CC)C3(COC(=O)C(CC)CC)C(O)CC21C (stereo not shown) [Compound E8] | weak
21 | CCCCCC(=O)OC1C(OC(=O)CCCCC)C2(CO)C(O)CC3(C)C(=CCC4C5(C)CCC(OC(=O)CCCCC)C(C)(CO)C5CCC43C)C2CC1(C)C (stereo not shown) [Compound D23] | moderate
22 | C=CCCC(=O)OCC1(C)C(O)CCC2(C)C1CCC1(C)C2CC=C2C3CC(C)(C)C(O)C(OC(=O)CCC=C)C3(COC(=O)CCC=C)C(O)CC21C (stereo not shown) [Compound C5] | moderate
23 | CC(C)=CC(=O)OCC1(C)C(OC(=O)C=C(C)C)CCC2(C)C1CCC1(C)C2CC=C2C3CC(C)(C)C(OC(=O)C=C(C)C)C(O)C3(COC(=O)C=C(C)C)C(O)CC21C (stereo not shown) [Compound B11] | weak

same assay, conditions: esterification products isolated with HPLC; graded strong / moderate / weak

Row | SMILES | Cytotoxicity activity
24 | CC=CC(=O)OCC12C(O)CC3(C)C(=CCC4C5(C)CCC(OC(=O)C=CC)C(C)(COC(=O)C(C)=CC)C5CCC43C)C1CC(C)(C)C(O)C2O (stereo not shown) [Tig—Cro—4] | moderate
25 | CC=C(C)C(=O)OCC1(C)C(O)CCC2(C)C1CCC1(C)C2CC=C2C3CC(C)(C)C(O)C(OC(=O)C(C)=CC)C3(COC(=O)C(C)=CC)C(O)CC21C (stereo not shown) [Tig—Ang—3] | moderate
26 | CC=C(C)C(=O)OCC1(C)C(O)CCC2(C)C1CCC1(C)C2CC=C2C3CC(C)(C)C(O)C(OC(=O)C=Cc4ccccc4)C3(COC(=O)C(C)=CC)C(O)CC21C (stereo not shown) [Tig—R—Cin—3] | moderate
27 | CC=C(C)C(=O)OCC1(C)C(OC(=O)CCCCC)CCC2(C)C1CCC1(C)C2CC=C2C3CC(C)(C)C(O)C(OC(=O)CCCCC)C3(COC(=O)C(C)=CC)C(O)CC21C (stereo not shown) [Tig—R—Hex—6] | weak
28 | CC=C(C)C(=O)OCC1(C)C(O)CCC2(C)C1CCC1(C)C2CC=C2C3CC(C)(C)C(OC(=O)C(C)=CC)C(OC(=O)C(C)=CC)C3(COC(=O)C(C)=CC)C(O)CC21C (stereo not shown) [Tig—R—Ang—1] | weak
29 | CC=C(C)C(=O)OCC1(C)C(O)CCC2(C)C1CCC1(C)C2CC=C2C3CC(C)(C)C(OC(=O)CCCCC)C(O)C3(COC(=O)CCCCC)C(O)CC21C (stereo not shown) [Tig—Hex—2] | moderate
30 | CC=C(C)C(=O)OCC1(C)C(O)CCC2(C)C1CCC1(C)C2CC=C2C3CC(C)(C)C(O)C(OC(=O)CCCCC)C3(CO)C(O)CC21C (stereo not shown) [Tig—Hex—6] | moderate
31 | CC=C(C)C(=O)OCC1(C)C(O)CCC2(C)C1CCC1(C)C2CC=C2C3CC(C)(C)C(OC(=O)C(CC)CC)C(O)C3(COC(=O)C(CC)CC)C(O)CC21C (stereo not shown) [Tig—Eth—2] | moderate
32 | CC=C(C)C(=O)OCC1(C)C(OC(=O)C(CC)CC)CCC2(C)C1CCC1(C)C2CC=C2C3CC(C)(C)C(OC(=O)C(CC)CC)C(O)C3(COC(=O)C(C)=CC)C(O)CC21C (stereo not shown) [Tig—R—Eth—5] | weak
33 | CC=C(C)C(=O)OCC1(C)C(OC(=O)CCCCC)CCC2(C)C1CCC1(C)C2CC=C2C3CC(C)(C)C(OC(=O)CCCCC)C(O)C3(COC(=O)C(C)=CC)C(O)CC21C (stereo not shown) [Tig—R—Hex—5] | weak
34 | CC=CC(=O)OCC12C(O)CC3(C)C(=CCC4C5(C)CCC(O)C(C)(COC(=O)C(C)=CC)C5CCC43C)C1CC(C)(C)C(OC(=O)C=CC)C2O (stereo not shown) [Tig—Cro—2] | moderate
